# Source: patent US20030060463A1, “Preparation of topical regional compositions for the relief of pain” (priority 1995, published 2003)
# Where two headings read alike, the source gives them in different places.
# Tested on: pain due to nerve injury (SMP)
# Assay type: in vivo, human
# Text: The purpose of this study was to evaluate and compare the safety and efficacy in the application of five topical compositions prepared with three active ingredients and applied singly or in combinations for the purpose of relief of sympathetically mediated pain (SMP).
# The study size was a total of thirty four volunteer subjects; fifteen female and nineteen male volunteer subjects. Their ages ranged from 29 to 84 with a mean of 52 years of age. All subjects were diagnosed with severe sympathetically mediated pain.
# Three different therapeutically active agents were utilized, alone or in combination, in preparations of lecithin matrix gels.
# A different composition was applied each treatment day to the area of maximum pain. The patients were asked to indicate the level of their pain immediately prior to the application of the compositions, and then at intervals of 5, 10, 15 minutes, 1, 2 and 3 hours after receiving treatment. Pain intensity was measured using the scale below.
# SIGNIFICANT PAIN RELIEF WAS DEFINED AS >50% PAIN RELIEF SUSTAINED GREATER THAN 2 HOURS. For example, if a given patient rated their pain immediately prior to application of the compositions as “very intense”, they would get a 1.8 score per the scale. […]
SMILES,"Safety and efficacy in clinical trials at other dosages (human, in vivo)",Safety and efficacy in clinical trials at other dosages (dosage between 0.05% to 2% of the topical composition)
CN(C)CCC=C1c2ccccc2CCc2ccccc21 [amitriptylline],safe and effective,
CNC1(c2ccccc2Cl)CCCCC1=O (centres unmarked) [ketamine],,safe and effective
